Experimental data from PMC4138103 (PLoS ONE, 2014).
Where two headings read alike, the source gives them in different places.

Test system: Sprague-Dawley rats
Assay: Retinoid analyses in liver, serum and kidney
Assay type: in vivo, Rattus norvegicus
Parameters: key to Kidney Retinyl esters, Dose response / Liver All-trans RA, Dose response / Kidney All-trans RA, Dose response / Serum Retinol, Dose response: D: significant dose response (for results, see Table 2); T: significant trend
Settings: for Emax: Rattus norvegicus; for Kidney All-trans RA / Kidney Retinol / Kidney Retinyl esters / Liver 9-cis-4o-13,14-dh RA / Liver All-trans RA / Liver Retinol / Liver Retinyl esters: group mean, N=5
Protocol: Retinoids in liver, serum, and kidney were analyzed according to Schmidt et al.. The polar retinoids 9-cis-retinoic acid (9-cis-RA), 13-cis-retinoic acid (13-cis-RA), 13-cis-4-oxo-retinoic acid (13-cis-4-o-RA), 9-cis-4-oxo-13,14-dihydro-retinoic acid (9-cis-4-o-13,14-dh-RA), all-trans retinoic acid (all-trans RA) and the apolar retinoids retinol and retinyl palmitate were extracted by a single liquid-extraction, separated from each other via solid-phase extraction using an aminopropyl phase, and then injected onto two different HPLC systems that were coupled with UV detection. […] The limits of detection (LOD) for all-trans RA and 9c-4o-13,14-dh-RA were 0.7 and 1.0 pmol/g tissue, and 0.3 and 0.6 pmol/ml serum, respectively. Retinol and retinyl palmitate were separated on a J'sphere ODS-H80 (4.6×150 mm, 4 µm particle size) obtained from YMC (Schermbeck, Germany), and were detected at 325 nm. The LOD for retinol and retinyl palmitate were 5.6 and 5.5 pmol/g tissue, and 4.2 and 4.2 pmol/ml serum, respectively.
Data were also analyzed using the BMD method, which is based on dose-response modeling of the full data set using a nested family of exponential and Hill models. The analyses were done on data of males and females combined, using sex as a covariate. […] In that case, different Critical Effect Doses (CEDs) and CEDs at the lowest bound of the confidence interval (CED-L) were generated for each sex. If no difference between sexes is detected, a CED and CED-Ls for the combined data is generated. However, this was also done if the curve fits are close, and separate analyses for males and females were then performed manually. CEDs and CED-Ls were calculated at the predefined Critical Effect Size (CES) of 5% (EFSA standard) or 10%.

[1] = females, total dose 0-1700 mg/kg bw
[2] = females, total dose 10 mg/kg bw
[3] = females, total dose 30 mg/kg bw
[4] = females, total dose 100 mg/kg bw
[5] = females, total dose 300 mg/kg bw
[6] = females, total dose 1000 mg/kg bw
[7] = females, total dose 1700 mg/kg bw

Clc1cc(Cl)c(-c2cc(Cl)c(Cl)c(Cl)c2Cl)cc1Cl [PCB 180, 2,2′,3′,4,4′,5,5′-heptachlorobiphenyl]
Emax (F, model E4, controls vs high dose according to the fitted model, read-out: Maximum response, Liver 9c-4o-13,14-dh-RA amount): -70.3% | Emax (F, model E4, controls vs high dose according to the fitted model, read-out: Maximum response, Liver 9c-4o-13,14-dh-RA concentration): -78.2% | Emax (females, controls vs high dose, fitted model, read-out: Kidney all-trans RA amount, Maximum response): 16.5% | Emax (females, controls vs high dose, fitted model, read-out: Kidney all-trans RA concentration, Maximum response): 19.9% | Emax (females, controls vs high dose, fitted model, read-out: Kidney retinol amount, Maximum response): 26.9% | Emax (females, controls vs high dose, fitted model, read-out: Kidney retinol concentration, Maximum response): 27.8% | Emax (females, controls vs high dose, fitted model, read-out: Liver 9c-4o-13,14-dh-RA amount, Maximum response): -70.3% | Emax (females, controls vs high dose, fitted model, read-out: Liver 9c-4o-13,14-dh-RA conc., Maximum response): -78.2% | Emax (females, controls vs high dose, fitted model, read-out: Liver retinol concentration, Maximum response): -42.9% | Emax (females, controls vs high dose, fitted model, read-out: Liver retinyl esters amount, Maximum response): -29% | Emax (females, controls vs high dose, fitted model, read-out: Liver retinyl esters concentration, Maximum response): -50.9% | Emax (females, controls vs high dose, fitted model, read-out: Serum retinol concentration, Maximum response): 23% | Emax (males, controls vs high dose, fitted model, read-out: Kidney retinol amount, Maximum response): 50.4% | Emax (males, controls vs high dose, fitted model, read-out: Kidney retinol concentration, Maximum response): 52% | Emax (males, controls vs high dose, fitted model, read-out: Kidney retinyl esters amount, Maximum response): 260% | Emax (males, controls vs high dose, fitted model, read-out: Kidney retinyl esters concentration, Maximum response): 254% | Emax (males, controls vs high dose, fitted model, read-out: Liver all-trans RA amount, Maximum response): 93% | Emax (males, controls vs high dose, fitted model, read-out: Liver all-trans RA concentration, Maximum response): 21% | Emax (males, controls vs high dose, fitted model, read-out: Liver retinol amount, Maximum response): -18.1% | Emax (males, controls vs high dose, fitted model, read-out: Liver retinol concentration, Maximum response): -46.8% | Emax (males, controls vs high dose, fitted model, read-out: Liver retinyl esters amount, Maximum response): -45.2% | Emax (males, controls vs high dose, fitted model, read-out: Liver retinyl esters concentration, Maximum response): -62.8% | Emax (model E2, controls vs high dose according to the fitted model, read-out: Maximum response, Kidney retinol amount): 49% | Emax (model E2, controls vs high dose according to the fitted model, read-out: Maximum response, Kidney retinol concentration): 51.9% | Emax (model E2, controls vs high dose according to the fitted model, read-out: Maximum response, Liver all-trans RA amount): 92.7% | Emax (model E2, controls vs high dose according to the fitted model, read-out: Maximum response, Liver all-trans RA concentration): 20.7% | Emax (model E2, controls vs high dose according to the fitted model, read-out: Maximum response, Liver retinol amount): -18.5% | Emax (model E2, controls vs high dose according to the fitted model, read-out: Maximum response, Liver retinyl esters amount): -45.7% | Emax (model E4, controls vs high dose according to the fitted model, read-out: Maximum response, Kidney retinyl esters amount): 253% | Emax (model E4, controls vs high dose according to the fitted model, read-out: Maximum response, Kidney retinyl esters concentration): 256% | Emax (model E4, controls vs high dose according to the fitted model, read-out: Maximum response, Liver retinol concentration): -44.6% | Emax (model E4, controls vs high dose according to the fitted model, read-out: Maximum response, Liver retinyl esters concentration): -63.4% | Liver 9c-4o-13,14-dh-RA concentration, max. decrease (females): 78% | Liver retinol concentration, max. decrease (females): 43% | Dose response, Kidney All-trans RA [1]: D, T | Dose response, Kidney Retinol [1]: D, T | Dose response, Liver 9-cis-4o-13,14-dh RA [1]: D, T | Dose response, Liver Retinyl esters [1]: D, T | Kidney All-trans RA, Dose response [1]: D | Kidney Retinol, Dose response [1]: D, T | Liver 9-cis-4o-13,14-dh-RA, Dose response [1]: D, T | Liver Retinol, Dose response [1]: D, T | Liver Retinyl esters, Dose response [1]: D, T | Serum Retinol, Dose response [1]: D | Kidney All-trans RA (females, total dose 3 mg/kg bw): 19.8 pmol | Kidney Retinol (females, total dose 3 mg/kg bw): 8.72 nmol | Kidney Retinyl esters (females, total dose 3 mg/kg bw): 0.77 nmol | Liver 9-cis-4o-13,14-dh RA (females, total dose 3 mg/kg bw): 887 pmol | Liver All-trans RA (females, total dose 3 mg/kg bw): 267 pmol | Liver Retinol (females, total dose 3 mg/kg bw): 0.26 µmol | Liver Retinyl esters (females, total dose 3 mg/kg bw): 11.1 µmol | Kidney All-trans RA [2]: 18.2 pmol | Kidney Retinol [2]: 8.07 nmol | Kidney Retinyl esters [2]: 0.88 nmol | Liver 9-cis-4o-13,14-dh RA [2]: 665 pmol | Liver All-trans RA [2]: 239 pmol | Liver Retinol [2]: 0.23 µmol | Liver Retinyl esters [2]: 9.31 µmol | Kidney All-trans RA [3]: 19.9 pmol | Kidney Retinol [3]: 9.25 nmol | Kidney Retinyl esters [3]: 0.82 nmol | Liver 9-cis-4o-13,14-dh RA [3]: 691 pmol | Liver All-trans RA [3]: 231 pmol | Liver Retinol [3]: 0.25 µmol | Liver Retinyl esters [3]: 8.81 µmol | Kidney All-trans RA [4]: 20.6 pmol | Kidney Retinol [4]: 8.42 nmol | Kidney Retinyl esters [4]: 0.71 nmol | Liver 9-cis-4o-13,14-dh RA [4]: 543 pmol | Liver All-trans RA [4]: 252 pmol | Liver Retinol [4]: 0.24 µmol | Liver Retinyl esters [4]: 9.73 µmol | Kidney All-trans RA [5]: 20.2 pmol | Kidney Retinol [5]: 8.45 nmol | Kidney Retinyl esters [5]: 0.73 nmol | Liver 9-cis-4o-13,14-dh RA [5]: 357 pmol | Liver All-trans RA [5]: 332 pmol | Liver Retinol [5]: 0.24 µmol | Liver Retinyl esters [5]: 8.90 µmol | Kidney All-trans RA [6]: 21.5 pmol | Kidney Retinol [6]: 8.95 nmol | Kidney Retinyl esters [6]: 0.74 nmol | Liver 9-cis-4o-13,14-dh RA [6]: 226 pmol | Liver All-trans RA [6]: 296 pmol | Liver Retinol [6]: 0.24 µmol | Liver Retinyl esters [6]: 8.28 µmol | Kidney All-trans RA [7]: 22.0 pmol | Kidney Retinol [7]: 10.3 nmol | Kidney Retinyl esters [7]: 0.75 nmol | Liver 9-cis-4o-13,14-dh RA [7]: 261 pmol | Liver All-trans RA [7]: 289 pmol | Liver Retinol [7]: 0.21 µmol | Liver Retinyl esters [7]: 6.90 µmol | Kidney all-trans RA amount, CED (females, CES 5%, total dose based): 494 mg/kg bw
